Results on twelve compounds are retold here after ChEMBL document CHEMBL1201862, “PubChem BioAssay data set” (2004).

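These data come from cells grown in 96-well plates and exposed to compound for 48 hours at five concentrations. GI50: concentration for 50% inhibition of growth.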 Calls of active or inactive are those of the source. Rule as the data show it: active = GI50 up to about 1.1 µM and inactive = higher. Some results are limits rather than exact numbers.

What all share (test): NCI-60 cell line screen, 48 h
Experiment [1] concerns A549.
Experiment [2] relates to ACHN.
Experiment [3] has as its system CAKI-1.
In experiment [4] the test system is HL-60.
The test system of experiment [5] is HT-29.
Experiment [6] concerns IGROV-1.
Experiment [7] has as its system KM12.
The subject of experiment [8] is LOX IMVI.
Experiment [9] deals with MCF7.
The subject of experiment [10] is Malme-3M.
For experiment [11], the system named is NCI/ADR-RES.
In experiment [12] the test system is PC-3.
In experiment [13] the test system is SF-295.
In experiment [14] the test system is SF-539.
Experiment [15] relates to SR.
The test system of experiment [16] is T47D.
Experiment [17] relates to TK-10.
Experiment [18] has as its system U-251.

As to `COc1cc(/C=C2\C(=O)N(c3ccc(NC(C)=O)cc3)C(c3ccccc3)S2(=O)=O)cc(OC)c1OC` (centres undefined), the GI50 in experiment [1] is > 100 µM (inactive); in [2] it was > 100 µM (inactive); in experiment [3] it was > 100 µM (inactive); in [4] it was 18.3 µM (inactive); in experiment [5], > 100 µM (inactive); in [6], > 100 µM (inactive). The GI50 was > 100 µM (inactive) in [7]; > 100 µM (inactive) in [8]; 45.5 µM (inactive) in [9]; > 100 µM (inactive) in [10]; > 100 µM (inactive) in experiment [11]; 48.4 µM (inactive) in experiment [12]. The GI50 in experiment [13] was 78 µM (inactive); in experiment [14], > 100 µM (inactive); in experiment [15] it was 36.7 µM (inactive); in experiment [16], 28.6 µM (inactive); in experiment [17], > 100 µM (inactive); in experiment [18], > 100 µM (inactive).

For the compound `Oc1ccccc1/C=N/c1nc2cc3sc(/N=C/c4ccccc4O)nc3cc2s1`, the GI50 in [1] is 6.98 µM (inactive); in experiment [2], 46.3 µM (inactive); in [3], 37.2 µM (inactive); in experiment [4], 4.44 µM (inactive); in experiment [5], 26.2 µM (inactive); in experiment [6], 60 µM (inactive). In addition, the GI50 in [7] is > 66.8 µM (inactive); in [8], 34.2 µM (inactive); in [9], 12.5 µM (inactive); in experiment [10], > 100 µM (inactive); in experiment [11] it was > 100 µM (inactive); in experiment [12], > 89.3 µM (inactive). The GI50 is > 54.3 µM (inactive) in experiment [13]; > 85.5 µM (inactive) in experiment [14]; 2.63 µM (inactive) in experiment [15]; > 61.1 µM (inactive) in experiment [16]; > 86.9 µM (inactive) in experiment [17]; > 70.5 µM (inactive) in experiment [18].

For the compound `CCn1c(-c2ccc(OC)cc2)nc2c1C(=O)c1ccccc1C2=O`, the GI50 in [1], in [2], in experiment [4], in [5], in experiment [6] and in experiment [7] was > 100 µM (inactive) throughout. The GI50 in experiment [9], in [10], in experiment [11], in experiment [12], in experiment [13] and in [14] was > 100 µM (inactive) throughout. Further, the GI50 in experiment [15], in experiment [16], in experiment [17] and in experiment [18] was > 100 µM (inactive) throughout.

`COc1cc(NCc2ccc3n2-c2ccccc2OC3)cc(OC)c1OC`: the GI50 in experiment [1] was 17.6 µM (inactive); in experiment [2] it was 30.1 µM (inactive); in [3], 27 µM (inactive); in experiment [4] it was 17.7 µM (inactive); in [5], 35.5 µM (inactive); in experiment [6] it was 14 µM (inactive). Also, the GI50 in experiment [7] was 40.7 µM (inactive); in experiment [8], 10.4 µM (inactive); in experiment [9] it was 14.1 µM (inactive); in [10], 15.1 µM (inactive); in experiment [11] it was 4.25 µM (inactive); in [12], 22.8 µM (inactive). For the same compound, the GI50 is 23.8 µM (inactive) in experiment [13]; 11.8 µM (inactive) in experiment [15]; 37.2 µM (inactive) in experiment [16]; 32.5 µM (inactive) in [17]; 18.4 µM (inactive) in experiment [18].

`Cc1nc2c(nc1C)-c1c(c3c(n1C)C(=O)CCC3)C(=O)C2=O`: the GI50 in experiment [1] was 1.3 µM (inactive); in [2], 0.476 µM (active); in experiment [4], 0.232 µM (active); in experiment [5] it was 1.98 µM (inactive); in experiment [6], 0.337 µM (active); in [7], 1.45 µM (inactive). Also, the GI50 was 0.186 µM (active) in experiment [8]; 0.163 µM (active) in [9]; 0.297 µM (active) in [10]; 0.547 µM (active) in [11]; 1.17 µM (inactive) in experiment [12]; 1.75 µM (inactive) in experiment [13]. For the same compound, the GI50 is 1.22 µM (inactive) in experiment [14]; 0.175 µM (active) in [15]; 0.0697 µM (active) in experiment [16]; 2.22 µM (inactive) in [17]; 0.213 µM (active) in [18].

Regarding `CC1(C)CC2C=C(C=O)C3(C=O)CC3(C)C2C1` (centres undefined), the GI50 in experiment [1] was 10.2 µM (inactive); in experiment [2] it was 1.49 µM (inactive); in experiment [3] it was 2.05 µM (inactive); in [4], 0.0333 µM (active); in experiment [5], 1.41 µM (inactive); in [6], 2.15 µM (inactive). For the same compound, the GI50 in [7] is 4.39 µM (inactive); in experiment [8], 1.34 µM (inactive); in experiment [9], 1.34 µM (inactive); in experiment [11], 1.76 µM (inactive); in experiment [12] it was 1.12 µM (active); in [13] it was 4.5 µM (inactive). Besides, the GI50 in experiment [14] was 1.95 µM (inactive); in [15], 0.218 µM (active); in experiment [16], 1.33 µM (inactive); in [17], 2.39 µM (inactive); in experiment [18], 1.79 µM (inactive).

Regarding `CCN1C(=O)c2ccccc2C1(O)c1ccc(Cl)cc1` (centres undefined), the GI50 is 25 µM (inactive) in [1]; 46.5 µM (inactive) in [2]; > 100 µM (inactive) in experiment [3]; 30 µM (inactive) in [4]; 41.9 µM (inactive) in experiment [5]; 29.1 µM (inactive) in [6]. For the same compound, the GI50 in [7] was 46 µM (inactive); in experiment [8], 51.4 µM (inactive); in [9], 47.6 µM (inactive); in experiment [11] it was 16.5 µM (inactive); in [12], 24.7 µM (inactive); in experiment [13], 18.4 µM (inactive). Further, the GI50 in experiment [14] was > 100 µM (inactive); in [15], 41.2 µM (inactive); in [16] it was 17.7 µM (inactive); in experiment [17], 94.4 µM (inactive); in experiment [18], 64.9 µM (inactive).

Take `CCCNCC(O)CNc1ccc(NCC(O)CNCCC)c2c1C(=O)c1ccccc1C2=O` (centres undefined): the GI50 in experiment [1] was 1.81 µM (inactive); in experiment [2], 8.83 µM (inactive); in experiment [3], 12.6 µM (inactive); in [4] it was 2.52 µM (inactive); in experiment [5], 2.17 µM (inactive); in experiment [6], 2.04 µM (inactive). Moreover, the GI50 in [7] was 3.41 µM (inactive); in experiment [8] it was 1.44 µM (inactive); in [9] it was 2.54 µM (inactive); in experiment [10] it was 2.7 µM (inactive); in [11], > 75 µM (inactive); in experiment [12] it was 1.95 µM (inactive). In addition, the GI50 in experiment [14] was 1.71 µM (inactive); in experiment [15] it was 2.42 µM (inactive); in experiment [16] it was 4.02 µM (inactive); in experiment [17], 10.6 µM (inactive); in experiment [18] it was 2.57 µM (inactive).

For `CCOC(=O)c1sc(N/N=C2\NC(=O)/C(=C/c3ccc([N+](=O)[O-])cc3)S2)nc1C`, the GI50 in experiment [1] was 28.3 µM (inactive); in experiment [2], 21.8 µM (inactive); in experiment [3] it was 22.1 µM (inactive); in [4], 22.8 µM (inactive); in experiment [5] it was 25.2 µM (inactive); in experiment [6] it was 14 µM (inactive). For the same compound, the GI50 in experiment [7] was 15.5 µM (inactive); in experiment [8], 19.8 µM (inactive); in experiment [9], 22.3 µM (inactive); in [11], 23.9 µM (inactive); in [12], 25.6 µM (inactive); in experiment [13], 20.4 µM (inactive). Moreover, the GI50 was 18.7 µM (inactive) in [14]; 6.65 µM (inactive) in experiment [15]; 15.1 µM (inactive) in experiment [16]; 35.3 µM (inactive) in [17]; 26.1 µM (inactive) in [18].

As for `COc1ccc2[nH]c3c(C)c4ncccc4c(C)c3c2c1`, the GI50 is 2.18 µM (inactive) in [1]; 5.2 µM (inactive) in experiment [2]; > 10 µM (inactive) in [3]; 3.01 µM (inactive) in experiment [4]; 2.22 µM (inactive) in experiment [5]; > 10 µM (inactive) in [6]. For the same compound, the GI50 in [7] was 1.93 µM (inactive); in [9], 2.02 µM (inactive); in [10] it was 1.65 µM (inactive); in experiment [11], 3.12 µM (inactive); in [12], 6.11 µM (inactive); in experiment [13], 2.43 µM (inactive). Further, the GI50 is 4.73 µM (inactive) in experiment [14]; 5.22 µM (inactive) in [15]; > 10 µM (inactive) in [16]; > 10 µM (inactive) in [17]; 8.43 µM (inactive) in [18].

On to `O=C1/C(=N/O)Cc2c(Br)ccc(Br)c21`, for which the GI50 in experiment [2] is 40.7 µM (inactive); in experiment [3], 42.4 µM (inactive); in experiment [4], 26.9 µM (inactive); in [5], > 100 µM (inactive); in experiment [6], 40 µM (inactive); in [7], 67.3 µM (inactive). Moreover, the GI50 in experiment [8] was 31.9 µM (inactive); in [9], 36.1 µM (inactive); in [11] it was 35.7 µM (inactive); in experiment [12] it was 27.8 µM (inactive); in experiment [13], 34.6 µM (inactive); in experiment [14] it was > 100 µM (inactive). Moreover, the GI50 in [15] is 28.4 µM (inactive); in [16], 51.3 µM (inactive); in experiment [17], 48.4 µM (inactive); in experiment [18], 39.6 µM (inactive).

As for `COCCOCCOC1=CC(=O)c2c(O)ccc(O)c2C1=O`, the GI50 is 1.75 µM (inactive) in experiment [1]; 1.61 µM (inactive) in experiment [2]; 0.729 µM (active) in experiment [3]; 0.505 µM (active) in [4]; 0.518 µM (active) in [5]; 1.82 µM (inactive) in [6]. In addition, the GI50 was 1.83 µM (inactive) in experiment [7]; 1.52 µM (inactive) in experiment [8]; 0.555 µM (active) in [9]; 0.149 µM (active) in experiment [10]; 1.96 µM (inactive) in experiment [11]; 2.48 µM (inactive) in [12]. For the same compound, the GI50 is 1.82 µM (inactive) in [13]; 2.07 µM (inactive) in experiment [14]; 1.19 µM (inactive) in experiment [15]; 1.82 µM (inactive) in experiment [16]; 2.93 µM (inactive) in [17].
